Each compound was assayed against Sodium-dependent dopamine transporter (Rattus norvegicus, UniProt P23977) (assay: Displacement of [3H]WIN-35 428 binding at dopamine transporter (DAT) in rat caudate putamen).
Format: tissue-based

Chain of Sodium-dependent dopamine transporter (P23977 whole entry): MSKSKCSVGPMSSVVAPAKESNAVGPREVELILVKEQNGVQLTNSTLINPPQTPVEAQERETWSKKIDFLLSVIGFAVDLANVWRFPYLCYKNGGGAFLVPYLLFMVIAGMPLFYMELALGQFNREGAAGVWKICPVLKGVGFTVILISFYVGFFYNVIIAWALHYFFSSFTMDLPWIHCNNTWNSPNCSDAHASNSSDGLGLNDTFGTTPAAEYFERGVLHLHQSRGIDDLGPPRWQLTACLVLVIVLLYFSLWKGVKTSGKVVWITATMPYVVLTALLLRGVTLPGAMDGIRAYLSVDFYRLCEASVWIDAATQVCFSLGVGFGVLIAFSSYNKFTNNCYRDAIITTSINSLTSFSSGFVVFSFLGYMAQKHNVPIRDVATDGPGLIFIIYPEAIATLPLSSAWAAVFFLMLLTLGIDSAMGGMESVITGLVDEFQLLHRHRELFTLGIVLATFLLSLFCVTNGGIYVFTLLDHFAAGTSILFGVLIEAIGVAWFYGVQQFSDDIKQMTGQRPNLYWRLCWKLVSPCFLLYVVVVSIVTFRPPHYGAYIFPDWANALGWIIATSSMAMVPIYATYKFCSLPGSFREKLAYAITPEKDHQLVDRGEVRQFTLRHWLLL

Structure (SMILES)	Ki
COC(=O)C1C(c2ccc(Cl)cc2)CC2CCC1N2CCCCc1ccc(N=[N+]=[N-])c(I)c1 (stereo unspecified)	33 nM
CN1C2CCC1C(C(=O)OCCc1ccc(N=[N+]=[N-])c(I)c1)C(c1ccc(Cl)cc1)C2 (stereo unspecified)	14.5 nM
COC(=O)C1C(c2ccc(Cl)cc2)CC2CCC1N2CCCCc1ccc(N=C=S)cc1 (stereo unspecified)	31.5 nM
[N-]=[N+]=Nc1ccc(CCCN2[C@@H]3CC[C@H]2C[C@@H](OC(c2ccc(F)cc2)c2ccc(F)cc2)C3)cc1I	284 nM
Fc1ccc(C(O[C@H]2C[C@H]3CC[C@@H](C2)N3CCCc2ccc(N=C=S)cc2)c2ccc(F)cc2)cc1	611 nM
Fc1ccc(C(O[C@H]2C[C@H]3CC[C@@H](C2)N3CCCCc2ccc(N=C=S)cc2)c2ccc(F)cc2)cc1	420 nM

Source: ChEMBL document CHEMBL1134308, “Novel tropane-based irreversible ligands for the dopamine transporter” (J Med Chem, 2001)
